Consider nine compounds from patent US8846601B2, “Melanocortin receptor-specific peptides” (Palatin Technologies, Inc., priority 2009, dated 2014).

pKi: −log10 of the molar value. Peptide text beside a SMILES is read from it.

Sequence of hMC4-R (P32245 whole entry): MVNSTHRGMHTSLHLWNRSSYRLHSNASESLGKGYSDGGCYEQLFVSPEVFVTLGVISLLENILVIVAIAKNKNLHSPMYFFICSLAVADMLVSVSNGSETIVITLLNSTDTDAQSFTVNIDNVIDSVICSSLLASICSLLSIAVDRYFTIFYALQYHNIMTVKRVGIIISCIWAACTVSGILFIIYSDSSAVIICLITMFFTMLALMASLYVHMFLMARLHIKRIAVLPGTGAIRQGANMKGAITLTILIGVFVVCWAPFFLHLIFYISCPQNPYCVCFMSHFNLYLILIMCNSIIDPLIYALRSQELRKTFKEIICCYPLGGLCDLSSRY

For this experiment, the target named is hMC4-R (Homo sapiens (Human), UniProt P32245). Kind of experiment: Competitive inhibition binding assay using [I125]-NDP-α-MSH, hMC4-R membranes. The settings on record: averaged; [I125]-NDP-α-MSH (values not marked *); read-out: MC4-R Ki. On the procedure:
A competitive inhibition binding assay is performed using membrane homogenates prepared from HEK-293 cells that express recombinant hMC4-R, hMC3-R, or hMC5-R, and from B-16 mouse melanoma cells (containing endogenous MC1-R). In some instances, HEK-293 cells that express recombinant hMC1-R were employed. In the examples that follow, all MC3-R, MC4-R and MC5-R values are for human recombinant receptors. […] Membrane homogenates were incubated with 0.2 nM (for hMC4-R) 0.4 nM (for MC3-R and MC5-R) or 0.1 nM (for mouse B16 MC1-R or hMC1-R) [I^125]-NDP-α-MSH (Perkin Elmer) and increasing concentrations of test peptides of the present invention in buffer containing 25 mM HEPES buffer (pH 7.5) with 100 mM NaCl, 2 mM CaCl2, 2 mM MgCl2, 0.3 mM 1,10-phenanthroline, and 0.2% bovine serum albumin. After incubation for 60 minutes at 37° C., the assay mixture was filtered and the membranes washed three times with ice-cold buffer. Filters were dried and counted in a gamma counter for bound radioactivity. […] Maximal specific binding (100%) was defined as the difference in radioactivity (cpm) bound to cell membranes in the absence and presence of 1 μM NDP-α-MSH. […] Each assay was conducted in triplicate and the actual mean values are described, with results less than 0% reported as 0%. Ki values for test peptides of the present invention were determined using Graph-Pad Prism® curve-fitting software.
The pKi is the Ki on a negative log10 scale, so that one unit is a factor of ten. As for `CC(=O)N[C@@H](CCCNC(=N)N)C(=O)N[C@H]1CC(=O)NCCCC[C@@H](C(=O)NC2CC2)NC(=O)[C@H](Cc2c[nH]c3ccccc23)NC(=O)[C@H](CCCNC(=N)N)NC(=O)[C@@H](Cc2ccccc2)NC(=O)[C@H](CCN)NC1=O` [compound 122, Ac-Arg-cyclo(Asp-Dab- D-Phe-Arg-Trp-Lys)- NH-cyclopropyl], the negative logarithm of the Ki (pKi) was 8.52.
Then `CC(=O)N[C@@H](CCCNC(=N)N)C(=O)N[C@H]1CCCCNC(=O)C[C@@H](C(=O)O)NC(=O)[C@H](Cc2c[nH]c3ccccc23)NC(=O)[C@H](CCCNC(=N)N)NC(=O)[C@@H](Cc2ccccc2)NC(=O)[C@H](CCN)NC1=O` [compound 131, Ac-Arg-cyclo(Lys-Dab- D-Phe-Arg-Trp-Asp)- OH] (HELM PEPTIDE1{[ac].R.K.[Dab].[dF].R.W.D}$PEPTIDE1,PEPTIDE1,3:R3-8:R3$$$V2.0), with 7.46; and `CC(=O)N[C@@H](CCCNC(=N)N)C(=O)N[C@H]1CCNC(=O)CCC[C@@H](C(=O)O)NC(=O)[C@H](Cc2c[nH]c3ccccc23)NC(=O)[C@H](CCCNC(=N)N)NC(=O)[C@@H](Cc2ccccc2)NC(=O)[C@H](CCN)NC1=O` [compound 136, Ac-Arg-cyclo(Dab-Dab- D-Phe-Arg-Trp-hGlu)- OH], with 7.46.
In the case of `N=C(N)NCCC[C@H](NC(=O)CC1CCCCC1)C(=O)N[C@H]1CC(=O)NCCCC[C@@H](C(N)=O)NC(=O)[C@H](Cc2c[nH]c3ccccc23)NC(=O)[C@H](CCCNC(=N)N)NC(=O)[C@@H](Cc2ccccc2)NC(=O)[C@H](CCN)NC1=O` [compound 139, Cyclohexylacetyl-Arg- cyclo(Asp-Dab-D-Phe- Arg-Trp-Lys)-NH2] it was 9.00; in that of `N=C(N)NCCC[C@H](NC(=O)Cc1ccccc1)C(=O)N[C@H]1CC(=O)NCCCC[C@@H](C(N)=O)NC(=O)[C@H](Cc2c[nH]c3ccccc23)NC(=O)[C@H](CCCNC(=N)N)NC(=O)[C@@H](Cc2ccccc2)NC(=O)[C@H](CCN)NC1=O` [compound 140, Phenylacetyl-Arg- cyclo(Asp-Dab-D-Phe- Arg-Trp-Lys)-NH2], 8.70; in that of `CC(=O)N[C@@H](CCCNC(N)=O)C(=O)N[C@H]1CC(=O)NCCCC[C@@H](C(N)=O)NC(=O)[C@H](Cc2c[nH]c3ccccc23)NC(=O)[C@H](CCCNC(=N)N)NC(=O)[C@@H](Cc2ccccc2)NC(=O)[C@H](CCN)NC1=O` [compound 141, Ac-Cit-cyclo(Asp-Dab- D-Phe-Arg-Trp-Lys)- NH2], 8.05.
In the case of `CC(=O)N[C@@H](CCC(N)=O)C(=O)N[C@H]1CC(=O)NCCCC[C@@H](C(N)=O)NC(=O)[C@H](Cc2c[nH]c3ccccc23)NC(=O)[C@H](CCCNC(=N)N)NC(=O)[C@@H](Cc2ccccc2)NC(=O)[C@H](CCN)NC1=O` [compound 142, Ac-Gln-cyclo(Asp-Dab- D-Phe-Arg-Trp-Lys)- NH2] (HELM PEPTIDE1{[ac].Q.D.[Dab].[dF].R.W.K.[am]}$PEPTIDE1,PEPTIDE1,3:R3-8:R3$$$V2.0) it was 7.82.
As for `CC(=O)N[C@@H](CCCNC(=N)N)C(=O)N[C@H]1CCCC(=O)NCC[C@@H](C(=O)O)NC(=O)[C@H](Cc2c[nH]c3ccccc23)NC(=O)[C@H](CCCNC(=N)N)NC(=O)[C@@H](Cc2ccccc2)NC(=O)[C@H](CCN)NC1=O` [compound 144, Ac-Arg-cyclo(hGlu-Dab- D-Phe-Arg-Trp-Dab)- OH], the negative logarithm of the Ki (pKi) was 7.35.
On to `CC(=O)N[C@@H](CCCNC(=N)N)C(=O)N[C@H]1CCCC(=O)NCC[C@@H](C(N)=O)NC(=O)[C@H](Cc2c[nH]c3ccccc23)NC(=O)[C@H](CCCNC(=N)N)NC(=O)[C@@H](Cc2ccccc2)NC(=O)[C@H](CCS(C)(=O)=O)NC1=O` [compound 145, Ac-Arg-cyclo(hGlu- Met(O2)-D-Phe-Arg- Trp-Dab)-NH2] (HELM PEPTIDE1{[ac].R.[O=C([C@H](CCCC(=O)[*:3])N[*:1])[*:2]].[CS(=O)(=O)CC[C@H](N[*:1])C(=O)[*:2]].[dF].R.W.[Dab].[am]}$PEPTIDE1,PEPTIDE1,3:R3-8:R3$$$V2.0), for which the pKi was 8.40.
